The test system of the first assay is IL-12. Nature of the assay: Human in vitro assay: inhibition of IL-12 production in stimulated human PBMC or THP-1 cells (ELISA). The format is cell-based. The note with it: read-out: IC50 Range (in vitro IC50 for IL-12). From the text: The biological activities of a compound of the invention can be evaluated by a number of cell-based assays. One of such assays can be conducted using cells from human peripheral blood mononuclear cells (PBMC) or human monocytic cell line (THP-1). The cells are stimulated with a combination of human interferon-γ (IFNγ) and lipopolysaccharide or a combination of IFNγ and Staphylococcus aureus Cowan I in the presence of a test compound. The level of inhibition of IL-12 production can be measured by determining the amount of p70 by using a sandwich ELISA assay with anti-human IL-12 antibodies. IC50 of the test compound can then be determined. Specifically, PBMC or THP-1 cells are incubated with the test compound. Cell viability was assessed using the bioreduction of MTS [3-(4,5-dimethylthiazol-2-yl)-5-(3-carboxymethoxyphenyl)-2-(4-sulfophenyl)-2H-tetrazolium] (Promega, Madison, Wis.).
8. Reagents. Staphylococcus aureus Cowan I (SAC) was obtained from Calbiochem (La Jolla, Calif.), and lipopolysaccharide (LPS, Serratia marscencens) was obtained from Sigma (St. Louis, Mo.). Human and mouse recombinant IFNγ were purchased from Boehringer Mannheim (Mannheim, Germany) and Pharmingen (San Diego, Calif.), respectively.
9. Human In Vitro Assay. Human PBMC were isolated by centrifugation using Ficoll-Paque (Pharmacia Biotech, Uppsala, Sweden) and prepared in RPMI medium supplemented with 10% fetal calf serum (FCS), 100 U/mL penicillin, and 100 μg/mL streptomycin. PBMC were plated in wells of a 96-well plate at a concentration of 5×10^5 cells/well, and primed by adding IFNγ (30 U/mL) for 22 h and stimulated by adding LPS (1 μg/mL), or by adding IFNγ (100 U/mL) and then stimulated by adding SAC (0.01%). A test pyrimidine compound was dissolved in DMSO, and added to wells of the 96-well plate. The final DMSO concentration was adjusted to 0.25% in all cultures, including the compound-free control. Human THP-1 cells were plated in wells, primed by adding IFNγ (100 U/mL) for 22 h and stimulated by adding SAC (0.025%) in the presence of different concentrations of the pyrimidine compound. Cell-free supernatants were taken 18 h later for measurement of cytokines. Cell viability was assessed using the bioreduction of MTS. Cell survival was estimated by determining the ratio of the absorbance in compound-treated groups versus compound-free control.
10. The supernatant was assayed for the amount of […], IL-12p70, or IL-10 by using a sandwich ELISA with anti-human antibodies, i.e., a Human IL-12 p40 ELISA kit from R&D Systems (Berkeley, Calif.), and a Human IL-12 p70 or IL-10 ELISA kit from Endogen (Cambridge, Mass.). Assays were based on the manufacturer's instructions.
The biological activities of compounds of the invention were tested on human PBMC or THP-1 cells.
Background: In an ELISA, binding on a coated surface is turned into a signal by an enzyme label.
What is called IC50 is the midpoint of a concentration-inhibition curve. In the case of `Cc1ccc2c(c1)/C(=N/Nc1cc(N3CCOCC3)nc(OCCN3CCOCC3)n1)C(=O)N2` [Compound 1, 5-methyl-3-{[6-morpholin-4-yl-2-(2-morpholin-4-yl-ethoxy)-pyrimidin-4-yl]-hydrazono}-1,3-dihydro-indol-2-one], the IC50 is < 1 µM.
Same read-out and setting: with `Cc1ccc2c(c1)/C(=N/Nc1cc(N3CCOCC3)nc(OCCN3CCOCC3)n1)CCO2` [Compound 2, N-(6-Methyl-chroman-4-ylidene)-N′-[6-morpholin-4-yl-2-(2-morpholin-4-yl-ethoxy)-pyrimidin-4-yl]-hydrazine] the figure was < 1 µM; with `c1ccc2c(c1)CC/C2=N\Nc1cc(N2CCOCC2)nc(OCCN2CCOCC2)n1` [Compound 4, N-(Indan-1-ylidene)-N′-[6-morpholin-4-yl-2-(2-morpholin-4-yl-ethoxy)-pyrimidin-4-yl]-hydrazine], ≥ 1 µM; with `c1ccc2c(c1)OC/C2=N\Nc1cc(N2CCOCC2)nc(OCCN2CCOCC2)n1` [Compound 5, N-(Benzofuran-3-ylidene)-N′-[6-morpholin-4-yl-2-(2-morpholin-4-yl-ethoxy)-pyrimidin-4-yl]-hydrazine], ≥ 1 µM.
As for `CC1C/C(=N/Nc2cc(N3CCOCC3)nc(OCCN3CCOCC3)n2)c2ccccc21` (stereo not shown) [Compound 6, N-(3-Methyl-indan-1-ylidene)-N′-[6-morpholin-4-yl-2-(2-morpholin-4-yl-ethoxy)-pyrimidin-4-yl]-hydrazine], the IC50 is ≥ 1 µM.
In the case of `Cc1cccc2c1CC/C2=N\Nc1cc(N2CCOCC2)nc(OCCN2CCOCC2)n1` [Compound 7, N-(4-Methyl-indan-1-ylidene)-N′-[6-morpholin-4-yl-2-(2-morpholin-4-yl-ethoxy)-pyrimidin-4-yl]-hydrazine], the IC50 was ≥ 1 µM.
With `COc1ccc2c(c1)CC/C2=N\Nc1cc(N2CCOCC2)nc(OCCN2CCOCC2)n1` [Compound 8, N-(5-Methoxy-indan-1-ylidene)-N′-[6-morpholin-4-yl-2-(2-morpholin-4-yl-ethoxy)-pyrimidin-4-yl]-hydrazine], the IC50 is ≥ 1 µM.
Take `c1ccc2c(c1)CC(=NNc1cc(N3CCOCC3)nc(OCCN3CCOCC3)n1)C2` [Compound 10, N-(Indan-2-ylidene)-N′-[6-morpholin-4-yl-2-(2-morpholin-4-yl-ethoxy)-pyrimidin-4-yl]-hydrazine]: the IC50 is ≥ 1 µM.
As to `c1ccc2c(c1)CCC/C2=N\Nc1cc(N2CCOCC2)nc(OCCN2CCOCC2)n1` [Compound 11, N-(3,4-Dihydro-2H-naphthalen-1-ylidene)-N′-[6-morpholin-4-yl-2-(2-morpholin-4-yl-ethoxy)-pyrimidin-4-yl]-hydrazine], the IC50 was ≥ 1 µM.
For `c1ccc2c(c1)OCC/C2=N\Nc1cc(N2CCOCC2)nc(OCCN2CCOCC2)n1` [Compound 12, N-(Chroman-4-ylidene)-N′-[6-morpholin-4-yl-2-(2-morpholin-4-yl-ethoxy)-pyrimidin-4-yl]-hydrazine], the IC50 was ≥ 1 µM.
For `COc1ccc2c(c1)CCC/C2=N\Nc1cc(N2CCOCC2)nc(OCCN2CCOCC2)n1` [Compound 13, N-(6-Methoxy-3,4-dihydro-2H-naphthalen-1-ylidene)-N′-[6-morpholin-4-yl-2-(2-morpholin-4-yl-ethoxy)-pyrimidin-4-yl]-hydrazine], the IC50 was < 1 µM.
As for `COc1ccc2c(c1)/C(=N/Nc1cc(N3CCOCC3)nc(OCCN3CCOCC3)n1)CCC2` [Compound 14, N-(7-Methoxy-3,4-dihydro-2H-naphthalen-1-ylidene)-N′-[6-morpholin-4-yl-2-(2-morpholin-4-yl-ethoxy)-pyrimidin-4-yl]-hydrazine], the IC50 is < 1 µM.
For `O=[N+]([O-])c1ccc2c(c1)/C(=N/Nc1cc(N3CCOCC3)nc(OCCN3CCOCC3)n1)CCC2` [Compound 15, N-(7-Nitro-3,4-dihydro-2H-naphthalen-1-ylidene)-N′-[6-morpholin-4-yl-2-(2-morpholin-4-yl-ethoxy)-pyrimidin-4-yl]-hydrazine], the IC50 was < 1 µM.
Consider `Oc1ccc2c(c1)CCC/C2=N\Nc1cc(N2CCOCC2)nc(OCCN2CCOCC2)n1` [Compound 16, N-(6-Hydroxy-3,4-dihydro-2H-naphthalen-1-ylidene)-N′-[6-morpholin-4-yl-2-(2-morpholin-4-yl-ethoxy)-pyrimidin-4-yl]-hydrazine], for which the IC50 was < 1 µM.
On the same count and under the same terms, with `Cc1cc(C)c2c(c1)/C(=N/Nc1cc(N3CCOCC3)nc(OCCN3CCOCC3)n1)CCC2` [Compound 17, N-(5,7-Dimethyl-3,4-dihydro-2H-naphthalen-1-ylidene)-N′-[6-morpholin-4-yl-2-(2-morpholin-4-yl-ethoxy)-pyrimidin-4-yl]-hydrazine] the figure was < 1 µM; with `CC1CC/C(=N\Nc2cc(N3CCOCC3)nc(OCCN3CCOCC3)n2)c2ccccc21` (stereo not shown) [Compound 19, N-(4-Methyl-3,4-dihydro-2H-naphthalen-1-ylidene)-N′-[6-morpholin-4-yl-2-(2-morpholin-4-yl-ethoxy)-pyrimidin-4-yl]-hydrazine], ≥ 1 µM; with `CN1C(=O)/C(=N/Nc2cc(N3CCOCC3)nc(OCCN3CCOCC3)n2)c2ccccc21` [Compound 20, 1-Methyl-3-{[6-morpholin-4-yl-2-(2-morpholin-4-yl-ethoxy)-pyrimidin-4-yl]-hydrazono}-1,3-dihydro-indol-2-one], ≥ 1 µM.
With `O=C1OCCN1CCOc1nc(N/N=C2\CCCc3cc(O)ccc32)cc(N2CCOCC2)n1` [Compound 22, 3-(2-{4-[N′-(6-Hydroxy-3,4-dihydro-2H-naphthalen-1-ylidene)-hydrazino]-6-morpholin-4-yl-pyrimidin-2-yloxy}-ethyl)-oxazolidin-2-one], the IC50 was < 1 µM.
`CC(C)(O)CCc1nc(N/N=C2\CCCc3cc(O)ccc32)cc(N2CCOCC2)n1` [Compound 24, 5-{[2-(3-Hydroxy-3-methyl-butyl)-6-morpholin-4-yl-pyrimidin-4-yl]-hydrazono}-5,6,7,8-tetrahydro-naphthalen-2-ol]: the IC50 was ≥ 1 µM.
Consider `Clc1ccc2c(c1)/C(=N/Nc1cc(N3CCOCC3)nc(OCCN3CCOCC3)n1)CCS2` [Compound 37, N-(6-Chloro-thiochroman-4-ylidene)-N′-[6-morpholin-4-yl-2-(2-morpholin-4-yl-ethoxy)-pyrimidin-4-yl]-hydrazine], for which the IC50 was < 1 µM.
Still for that read-out and setting: with `O=S1(=O)CC/C(=N\Nc2cc(N3CCOCC3)nc(OCCN3CCOCC3)n2)c2cc(Cl)ccc21` [Compound 38, N-(6-Chloro-1,1-dioxo-1λ^6-thiochroman-4-ylidene)-N′-[6-morpholin-4-yl-2-(2-morpholin-4-yl-ethoxy)-pyrimidin-4-yl]-hydrazine] the figure was ≥ 1 µM.
Still for that read-out and setting: with `Cc1ccc2occ/c(=N\Nc3cc(N4CCOCC4)nc(OCCN4CCOCC4)n3)c2c1` [Compound 39, N-(6-Methyl-chromen-4-ylidene)-N′-[6-morpholin-4-yl-2-(2-morpholin-4-yl-ethoxy)-pyrimidin-4-yl]-hydrazine] the figure was < 1 µM; with `c1cc2c(o1)CCC/C2=N\Nc1cc(N2CCOCC2)nc(OCCN2CCOCC2)n1` [Compound 41, N-(6,7-Dihydro-5H-benzofuran-4-ylidene)-N′-[6-morpholin-4-yl-2-(morpholin-4-yl-ethoxy)-pyrimidin-4-yl]-hydrazine], ≥ 1 µM.

The test system of the next assay is Adjuvant arthritis (AA) in female Lewis rats. Kind of assay: Treatment of adjuvant arthritis in rats. The format is in vivo, rat. The note with it: 20 mg/kg dose, orally once a day for 7 days (day 7-14). On the procedure: Adjuvant arthritis (AA) was induced in female Lewis rats by the intracutaneous injection (base of the tail) of 0.1 mL of a 10 mg/mL bacterial suspension made from ground, heat-killed Mycobacterium tuberculosis H37Ra suspended in incomplete Freund's adjuvant. Rats were given a test compound orally once a day for 7 days (day 7-14), starting day 7 after mycobacterium induction. The development of polyarthritis was monitored daily by macroscopic inspection and assignment of an arthritis index to each animal, during the critical period (days 10 to 25 post-immunization).
The intensity of polyarthritis was scored according to the following scheme: (a) Grade each paw from 0 to 3 based on erythema, swelling, and deformity of the joints: 0 for no erythema or swelling; 0.5 if swelling is detectable in at least one joint; 1 for mild swelling and erythema; 2 for swelling and erythema of both tarsus and carpus; and 3 for ankylosis and bony deformity. Maximum score for all 4 paws is thus 12. (b) Grade for other parts of the body: for each ear, 0.5 for redness and another 0.5 if knots are present; 1 for connective tissue swelling (saddle nose); and 1 for the presence of knots or kinks in the tail. The highest possible arthritic index is 16.
Experiments with the AA model were repeated four times. […] The arthritis score used in this model is a reflection of the inflammatory state of the structures monitored and the results therefore show the ability of the test compound to provide relief for this aspect of the pathology.
Take `Cc1ccc2c(c1)/C(=N/Nc1cc(N3CCOCC3)nc(OCCN3CCOCC3)n1)CCO2` [Compound 2, N-(6-Methyl-chroman-4-ylidene)-N′-[6-morpholin-4-yl-2-(2-morpholin-4-yl-ethoxy)-pyrimidin-4-yl]-hydrazine]: the “percent reduction in arthritic score” value came out at 21% reduction.

The assay is the same for the next values; noted with them: 50 mg/kg dose, orally once a day for 7 days (day 7-14).
Consider `Cc1ccc2c(c1)/C(=N/Nc1cc(N3CCOCC3)nc(OCCN3CCOCC3)n1)CCO2` [Compound 2, N-(6-Methyl-chroman-4-ylidene)-N′-[6-morpholin-4-yl-2-(2-morpholin-4-yl-ethoxy)-pyrimidin-4-yl]-hydrazine], for which the “percent reduction in arthritic score” value was 32% reduction.

The values above are taken from patent US20060281711A1, “IL-12 modulatory compounds” (Synta Pharmaceuticals Corp., priority 2005, published 2006).
